Measurements: PubChem BioAssay AID330 (DTP/NCI, 2004)
Several values for one entry are separate records, joined by “and”; a condition that tells them apart may be missing. Identical values can stand only once. Inconclusive results and toxic doses are left out.

Tested on: P388 leukemia ip, CD2F1 mice, survival T/C
Test: NCI In Vivo Anticancer Drug Screen. Data for tumor model P388 Leukemia (intraperitoneal) in CD2F1 (CDF1) mice
Settings: endpoint: median survival time, higher = longer survival
Method in brief: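 Mice carrying the transplanted tumor received test compound or vehicle. Survival was recorded in each group, and the value is the treated-group measurement divided by that of the vehicle-treated control group.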

[1] = dose: 6.25 mg/kg/injection, schedule: Q01DX009 (ip), vehicle: saline
[2] = dose: 50.0 mg/kg/injection, schedule: Q01DX005 (ip), vehicle: Klucel (hydroxypropylcellulose) (HPC)
[3] = dose: 100.0 mg/kg/injection, schedule: Q01DX005 (ip), vehicle: Klucel (hydroxypropylcellulose) (HPC)
[4] = dose: 200.0 mg/kg/injection, schedule: Q01DX005 (ip), vehicle: Klucel (hydroxypropylcellulose) (HPC)
[5] = dose: 60.0 mg/kg/injection, schedule: Q01DX005 (ip), vehicle: saline with Tween-80
[6] = dose: 120.0 mg/kg/injection, schedule: Q01DX005 (ip), vehicle: saline with Tween-80
[7] = dose: 50.0 mg/kg/injection, schedule: Q01DX009 (ip), vehicle: Klucel (hydroxypropylcellulose) (HPC)
[8] = dose: 100.0 mg/kg/injection, schedule: Q01DX009 (ip), vehicle: Klucel (hydroxypropylcellulose) (HPC)
[9] = dose: 200.0 mg/kg/injection, schedule: Q01DX009 (ip), vehicle: Klucel (hydroxypropylcellulose) (HPC)
[10] = dose: 50.0 mg/kg/injection, schedule: Q01DX005 (ip), vehicle: saline with Tween-80
[11] = dose: 100.0 mg/kg/injection, schedule: Q01DX005 (ip), vehicle: saline with Tween-80
[12] = dose: 240.0 mg/kg/injection, schedule: Q01DX005 (ip), vehicle: saline with Tween-80
[13] = dose: 60.0 mg/kg/injection, schedule: Q01DX005 (ip), vehicle: saline

CCN(CC)CC[n+]1ccc2c(C)c3[nH]c4ccccc4c3c(C)c2c1
T/C (dose: 0.63 mg/kg/injection, schedule: Q04DX002 (ip), vehicle: water): 110 % of control
T/C (dose: 0.78 mg/kg/injection, schedule: Q04DX003 (ip), vehicle: water): 106 % of control
T/C (dose: 1.25 mg/kg/injection, schedule: Q04DX002 (ip), vehicle: water): 115 % of control
T/C (dose: 1.56 mg/kg/injection, schedule: Q04DX003 (ip), vehicle: water): 107 % of control and 120 % of control
T/C (dose: 2.5 mg/kg/injection, schedule: Q04DX002 (ip), vehicle: water): 122 % of control
T/C (dose: 3.12 mg/kg/injection, schedule: Q04DX003 (ip), vehicle: water): 123 % of control
T/C (dose: 6.25 mg/kg/injection, schedule: Q04DX003 (ip), vehicle: water): 124 % of control
T/C (dose: 12.5 mg/kg/injection, schedule: Q04DX003 (ip), vehicle: water): 124 % of control

CN(C)CC(CN(C)C)C(=O)c1ccccc1
T/C (dose: 3.12 mg/kg/injection, schedule: Q01DX009 (ip), vehicle: saline): 103 % of control and 105 % of control
T/C [1]: 105 % of control (2×) and 122 % of control
T/C (dose: 12.5 mg/kg/injection, schedule: Q01DX009 (ip), vehicle: saline): 107 % of control and 117 % of control and 112 % of control
T/C (dose: 25.0 mg/kg/injection, schedule: Q01DX009 (ip), vehicle: saline): 117 % of control [middle of 5 runs]
T/C (dose: 50.0 mg/kg/injection, schedule: Q01DX009 (ip), vehicle: saline): 124 % of control

COc1ccc2c(c1)C(=O)CC2
T/C [2]: 106 % of control
T/C [3]: 101 % of control
T/C [4]: 101 % of control

COc1cc(OC)c(C(c2cc3c(cc2O)OCO3)N2CCOCC2)c(OC)c1 (stereo not drawn)
T/C [5]: 118 % of control
T/C [6]: 120 % of control

[O-]c1nn(-c2ccccc2)n[n+]1-c1ccccc1
T/C (dose: 100.0 mg/kg/injection, schedule: Q01DX001 (ip), vehicle: Klucel (hydroxypropylcellulose) (HPC)): 97 % of control
T/C (dose: 200.0 mg/kg/injection, schedule: Q01DX001 (ip), vehicle: Klucel (hydroxypropylcellulose) (HPC)): 100 % of control
T/C (dose: 400.0 mg/kg/injection, schedule: Q01DX001 (ip), vehicle: Klucel (hydroxypropylcellulose) (HPC)): 94 % of control

CCn1c(=O)c2[nH]c(Cl)nc2n(C2CC2)c1=O
T/C [7]: 99 % of control
T/C [8]: 101 % of control

Clc1ccc(NCc2ccc(CNc3ccc(Cl)cc3)cc2)cc1
T/C (dose: 6.25 mg/kg/injection, schedule: Q01DX009 (ip), vehicle: saline with Tween-80): 98 % of control
T/C (dose: 12.5 mg/kg/injection, schedule: Q01DX009 (ip), vehicle: saline with Tween-80): 91 % of control
T/C (dose: 25.0 mg/kg/injection, schedule: Q01DX009 (ip), vehicle: saline with Tween-80): 91 % of control
T/C (dose: 50.0 mg/kg/injection, schedule: Q01DX009 (ip), vehicle: saline with Tween-80): 97 % of control

NC(=O)C1CCCC12NC(=O)NC2=O (stereo not drawn)
T/C [8]: 90 % of control
T/C [9]: 90 % of control
T/C (dose: 400.0 mg/kg/injection, schedule: Q01DX009 (ip), vehicle: Klucel (hydroxypropylcellulose) (HPC)): 100 % of control

CC(=O)Oc1cccc2c1CC(C[Se]c1ccccc1)C(=O)O2 (stereo not drawn)
T/C [10]: 94 % of control
T/C [11]: 89 % of control

CN1C(C(=O)Nc2nccs2)=C(O)c2ccccc2S1(=O)=O
T/C [5]: 105 % of control
T/C [6]: 98 % of control

COc1cc(C2(O)c3cc4c(cc3CCN2C)OCO4)cc(OC)c1OC (stereo not drawn)
T/C [2]: 97 % of control
T/C [3]: 96 % of control
T/C [4]: 90 % of control

OCCCCP12(OC(C(F)(F)F)(C(F)(F)F)c3ccccc31)OC(C(F)(F)F)(C(F)(F)F)c1ccccc12
T/C [7]: 102 % of control
T/C [8]: 100 % of control
T/C [9]: 102 % of control

CCOC(=O)C1=C(C)/C(=C/c2[n-]c(Cl)c(C)c2C(=O)OCC)N=C1C.CCOC(=O)C1=C(C)/C(=C/c2[n-]c(Cl)c(C)c2C(=O)OCC)N=C1C.[Co+3]
T/C [2]: 88 % of control
T/C [3]: 98 % of control
T/C [4]: 108 % of control

O=C1/C(=C/c2cccc(O)c2)COc2ccccc21
T/C [5]: 95 % of control
T/C [6]: 94 % of control
T/C [12]: 87 % of control

COc1ccc(NC(=O)Nc2ccc(Cl)cc2)nn1
T/C [7]: 103 % of control
T/C [8]: 101 % of control
T/C [9]: 94 % of control

S=c1sc2ccccc2n1CN1CCOCC1
T/C (dose: 25.0 mg/kg/injection, schedule: Q01DX005 (ip), vehicle: saline with Tween-80): 107 % of control
T/C [10]: 104 % of control and 114 % of control
T/C [11]: 121 % of control and 124 % of control

[N-]=[N+]=N/C=C/C(=O)OCCBr
T/C (dose: 15.0 mg/kg/injection, schedule: Q01DX005 (ip), vehicle: saline): 97 % of control
T/C (dose: 30.0 mg/kg/injection, schedule: Q01DX005 (ip), vehicle: saline): 103 % of control
T/C [13]: 102 % of control and 97 % of control

Cc1nc(Nc2ccccc2)c(C#N)c(=O)[nH]1
T/C [5]: 86 % of control
T/C [6]: 86 % of control
T/C [12]: 86 % of control

COC(=O)c1c[nH]c(=O)[nH]c1=O
T/C [5]: 94 % of control
T/C [6]: 105 % of control
T/C [12]: 112 % of control

COc1nc(N2CCNCC2)nc2c1CCCC2
T/C [13]: 93 % of control
T/C (dose: 120.0 mg/kg/injection, schedule: Q01DX005 (ip), vehicle: saline): 103 % of control

Cc1ccc2c(I)cc(I)c(O)c2n1
T/C [7]: 107 % of control
T/C [8]: 102 % of control
T/C [9]: 100 % of control

COc1cccc2c1C(=O)c1c(O)c3c(c(O)c1C2=O)C[C@@](O)(C(C)=O)C[C@@H]3OC1CC([N+]([O-])(Cc2ccccc2)Cc2ccccc2)C(O)C(C)O1 (stereo partly drawn)
T/C (dose: 3.13 mg/kg/injection, schedule: Q04DX003 (ip), vehicle: distilled water + Tween-80): 114 % of control
T/C (dose: 6.25 mg/kg/injection, schedule: Q04DX003 (ip), vehicle: distilled water + Tween-80): 108 % of control and 121 % of control
T/C (dose: 12.5 mg/kg/injection, schedule: Q04DX003 (ip), vehicle: distilled water + Tween-80): 123 % of control
T/C (dose: 25.0 mg/kg/injection, schedule: Q04DX003 (ip), vehicle: distilled water + Tween-80): 150 % of control and 183 % of control
T/C (dose: 50.0 mg/kg/injection, schedule: Q04DX003 (ip), vehicle: distilled water + Tween-80): 185 % of control and 212 % of control
T/C (dose: 100.0 mg/kg/injection, schedule: Q04DX003 (ip), vehicle: distilled water + Tween-80): 237 % of control

C[n+]1ccc2cc(-c3ccccc3)c3ccccc3c2c1
T/C (dose: 1.56 mg/kg/injection, schedule: Q01DX009 (ip), vehicle: saline): 109 % of control
T/C (dose: 3.13 mg/kg/injection, schedule: Q01DX009 (ip), vehicle: saline): 116 % of control
T/C [1]: 109 % of control

Cc1ccc(S(=O)(=O)OCCOCCOCCOCCOCCOCCOCCOCCOCCOCCOCCOCCOCCOCCOS(=O)(=O)c2ccc(C)cc2)cc1
T/C (dose: 37.5 mg/kg/injection, schedule: Q01DX001 (ip), vehicle: saline with Tween-80): 101 % of control
T/C (dose: 75.0 mg/kg/injection, schedule: Q01DX001 (ip), vehicle: saline with Tween-80): 104 % of control
T/C (dose: 150.0 mg/kg/injection, schedule: Q01DX001 (ip), vehicle: saline with Tween-80): 102 % of control

BrC1CC(Br)c2c1c1c(c3c2C(Br)CC3Br)C(Br)CC1Br (stereo not drawn)
T/C (dose: 100.0 mg/kg/injection, schedule: Q01DX009 (ip), vehicle: saline with Tween-80): 150 % of control
T/C (dose: 200.0 mg/kg/injection, schedule: Q01DX009 (ip), vehicle: saline with Tween-80): 156 % of control

O=c1c2c(c(=O)c(=O)c1=O)Nc1ccccc1N2
T/C [5]: 100 % of control
T/C [6]: 101 % of control
T/C [12]: 107 % of control

COc1c(C)c2c(c(C)c1Cl)Oc1c(C)c(O)c(Cl)c(C)c1C(=O)O2
T/C (dose: 1.12 mg/kg/injection, schedule: Q01DX009 (ip), vehicle: Klucel (hydroxypropylcellulose) (HPC)): 112 % of control
T/C (dose: 2.25 mg/kg/injection, schedule: Q01DX009 (ip), vehicle: Klucel (hydroxypropylcellulose) (HPC)): 105 % of control
T/C (dose: 4.5 mg/kg/injection, schedule: Q01DX009 (ip), vehicle: Klucel (hydroxypropylcellulose) (HPC)): 108 % of control
T/C (dose: 9.0 mg/kg/injection, schedule: Q01DX009 (ip), vehicle: Klucel (hydroxypropylcellulose) (HPC)): 96 % of control
T/C (dose: 18.0 mg/kg/injection, schedule: Q01DX009 (ip), vehicle: Klucel (hydroxypropylcellulose) (HPC)): 102 % of control
